Patent US20110098269A1, “Substituted Pyridazinone Derivatives as Histamine-3 (H3) Receptor Ligands” (Cephalon, Inc., priority 2008, published 2011)

How the values were obtained:
[1] = biological target: T1, human H3 receptor (Homo sapiens, UniProt Q9Y5N1); experiment: Human H3 radioligand binding ([3H]-N-alpha-methylhistamine, CHO cell membranes); conditions: Human H3 binding constant, class symbols; read-out: hH3 Ki
T1 construct: expressed in transfected cells

[2] = biological target: T2, rat histamine H3 receptor (Rattus norvegicus, UniProt Q9QYN8); experiment: Rat H3 radioligand binding ([3H]-N-alpha-methylhistamine, CHO-A3 cell membranes); conditions: Rat H3 binding constant, class symbols; read-out: rH3 Ki
T2 construct: encoding the entire 445-amino-acid rat histamine H3 receptor; expressed in transfected cells
T2 sequence (Q9QYN8 whole entry): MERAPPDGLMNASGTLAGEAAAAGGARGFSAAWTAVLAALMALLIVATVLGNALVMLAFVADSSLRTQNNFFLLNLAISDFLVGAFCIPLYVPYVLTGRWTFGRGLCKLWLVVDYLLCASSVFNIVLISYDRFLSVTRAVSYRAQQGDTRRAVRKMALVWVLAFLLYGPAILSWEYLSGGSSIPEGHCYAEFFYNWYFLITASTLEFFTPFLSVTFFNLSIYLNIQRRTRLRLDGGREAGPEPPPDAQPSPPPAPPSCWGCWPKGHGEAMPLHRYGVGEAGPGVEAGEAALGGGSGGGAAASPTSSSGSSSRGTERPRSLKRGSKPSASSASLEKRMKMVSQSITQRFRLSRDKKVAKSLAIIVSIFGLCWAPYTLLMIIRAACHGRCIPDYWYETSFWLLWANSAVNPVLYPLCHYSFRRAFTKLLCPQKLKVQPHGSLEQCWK

T1 sequence (Q9Y5N1 whole entry): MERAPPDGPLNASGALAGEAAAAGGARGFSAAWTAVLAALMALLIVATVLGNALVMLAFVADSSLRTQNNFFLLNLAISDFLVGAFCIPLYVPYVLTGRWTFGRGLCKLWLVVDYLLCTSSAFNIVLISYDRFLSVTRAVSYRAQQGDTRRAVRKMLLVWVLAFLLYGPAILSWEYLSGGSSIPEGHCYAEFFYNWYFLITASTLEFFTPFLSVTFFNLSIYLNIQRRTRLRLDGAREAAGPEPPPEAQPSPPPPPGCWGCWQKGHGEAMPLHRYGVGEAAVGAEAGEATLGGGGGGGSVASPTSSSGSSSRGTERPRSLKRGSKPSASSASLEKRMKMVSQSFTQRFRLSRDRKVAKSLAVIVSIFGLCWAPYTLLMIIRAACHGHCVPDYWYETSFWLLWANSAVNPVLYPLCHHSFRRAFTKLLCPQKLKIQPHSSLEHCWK

| Compound | Ki [1] | Ki [2] | melting point |
| --- | --- | --- | --- |
| CCN1N=C(c2ccc3c(c2)CCN(C2CCC2)CC3)CCC1=O [Example 12, 6-(3-Cyclobutyl-2,3,4,5-tetrahydro-1H-benzo[d]azepin-7-yl)-2-ethyl-4,5-dihydro-2H-pyridazin-3-one] | < 100 nM | < 100 nM | 97 to 98 °C |
| O=c1ccc(-c2ccc3c(c2)CCN(C2CCC2)CC3)nn1CC(F)(F)F [Example 11, 6-(3-Cyclobutyl-2,3,4,5-tetrahydro-1H-benzo[d]azepin-7-yl)-2-(2,2,2-trifluoro-ethyl)-2H-pyridazin-3-one] | < 100 nM | < 100 nM | 142 to 143 °C |
| O=c1ccc(-c2ccc3c(c2)CCN(C2CCC2)CC3)nn1CCO [Example 18, 6-(3-Cyclobutyl-2,3,4,5-tetrahydro-1H-benzo[d]azepin-7-yl)-2-(2-hydroxy-ethyl)-2H-pyridazin-3-one] | < 100 nM | < 100 nM | 157 to 158 °C |

Other lines, results leading:

| Ki [1] | Ki [2] | melting point | Compound |
| --- | --- | --- | --- |
| < 100 nM | < 100 nM | 70 to 73 °C | CC(C)n1nc(-c2ccc(Oc3ccc4c(c3)CCN(C3CCC3)CC4)nc2)ccc1=O [Example 29, 6-[6-(3-Cyclobutyl-2,3,4,5-tetrahydro-1H-benzo[d]azepin-7-yloxy)-pyridin-3-yl]-2-isopropyl-2H-pyridazin-3-one] |
| < 100 nM | 100 to 1000 nM | 199 to 200 °C | CC(C)n1nc(-c2ccc3c(c2)CCN(C2CCC2)CC3)ccc1=O [Example 7, 6-(3-Cyclobutyl-2,3,4,5-tetrahydro-1H-benzo[d]azepin-7-yl)-2-isopropyl-2H-pyridazin-3-one] |
| < 100 nM | < 100 nM | 88 to 89 °C | CCCCn1nc(-c2ccc3c(c2)CCN(C2CCC2)CC3)ccc1=O [Example 14, 2-Butyl-6-(3-cyclobutyl-2,3,4,5-tetrahydro-1H-benzo[d]azepin-7-yl)-2H-pyridazin-3-one] |
| < 100 nM | < 100 nM | 178 to 182 °C | O=c1ccc(-c2ccc(Oc3ccc4c(c3)CCN(C3CCC3)CC4)nc2)nn1-c1ccccn1 [Example 28, 6-[6-(3-Cyclobutyl-2,3,4,5-tetrahydro-1H-benzo[d]azepin-7-yloxy)-pyridin-3-yl]-2-pyridin-2-yl-2H-pyridazin-3-one] |
